PMC6505380, “An Extensively Humanized Mouse Model to Predict Pathways of Drug Disposition and Drug/Drug Interactions, and to Facilitate Design of Clinical Trials” (Drug Metabolism and Disposition, 2019)
“Also recorded” adds a separate entry of the source. Where two headings read alike, the source gives them in different places. Values belong to the molecule of their own block, whether it stands above or below them.

What was measured:
CYP1A2 [1] = target: T1, CYP1A2 (Homo sapiens, UniProt P05177); assay: Enzyme inhibition assay, caffeine to paraxanthine (HLM, 8HUM microsomes); conditions: caffeine 220 μM in cocktail, furafylline 3, enoxacin 200, fluconazole 300, sulfaphenazole 3, quinidine 3, paroxetine 10, ketoconazole 1 μM
T1 sequence (P05177 1-516): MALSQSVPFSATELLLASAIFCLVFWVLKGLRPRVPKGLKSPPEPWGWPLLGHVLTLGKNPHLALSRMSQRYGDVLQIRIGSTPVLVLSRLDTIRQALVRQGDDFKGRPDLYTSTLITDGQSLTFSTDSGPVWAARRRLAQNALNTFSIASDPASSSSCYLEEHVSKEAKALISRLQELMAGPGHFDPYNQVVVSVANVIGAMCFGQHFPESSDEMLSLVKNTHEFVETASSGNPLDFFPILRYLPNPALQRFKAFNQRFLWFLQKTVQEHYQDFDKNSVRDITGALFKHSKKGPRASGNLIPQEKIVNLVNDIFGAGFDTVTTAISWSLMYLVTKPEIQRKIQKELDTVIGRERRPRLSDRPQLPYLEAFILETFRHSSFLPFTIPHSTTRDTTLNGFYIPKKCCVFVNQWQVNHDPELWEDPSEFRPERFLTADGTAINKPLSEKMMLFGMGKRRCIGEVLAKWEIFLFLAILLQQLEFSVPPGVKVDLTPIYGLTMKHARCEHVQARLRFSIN
Protocol: (§1) After a 5-minute preincubation at 37°C, reactions were initiated by addition of NADPH (1.3 mM). […] The samples were then centrifuged at 3000g for 55 minutes at 4°C, and an aliquot of the supernatant fraction was analyzed by LC-MS/MS. All experiments were performed at least in triplicate.

CYP2C9 [2] = target: T2, CYP2C9 (Homo sapiens, UniProt P11712); assay: Enzyme inhibition assay, tolbutamide hydroxylation (HLM, 8HUM microsomes); conditions: tolbutamide 2 μM in cocktail, furafylline 3, enoxacin 200, fluconazole 300, sulfaphenazole 3, quinidine 3, paroxetine 10, ketoconazole 1 μM
T2 sequence (P11712 whole entry): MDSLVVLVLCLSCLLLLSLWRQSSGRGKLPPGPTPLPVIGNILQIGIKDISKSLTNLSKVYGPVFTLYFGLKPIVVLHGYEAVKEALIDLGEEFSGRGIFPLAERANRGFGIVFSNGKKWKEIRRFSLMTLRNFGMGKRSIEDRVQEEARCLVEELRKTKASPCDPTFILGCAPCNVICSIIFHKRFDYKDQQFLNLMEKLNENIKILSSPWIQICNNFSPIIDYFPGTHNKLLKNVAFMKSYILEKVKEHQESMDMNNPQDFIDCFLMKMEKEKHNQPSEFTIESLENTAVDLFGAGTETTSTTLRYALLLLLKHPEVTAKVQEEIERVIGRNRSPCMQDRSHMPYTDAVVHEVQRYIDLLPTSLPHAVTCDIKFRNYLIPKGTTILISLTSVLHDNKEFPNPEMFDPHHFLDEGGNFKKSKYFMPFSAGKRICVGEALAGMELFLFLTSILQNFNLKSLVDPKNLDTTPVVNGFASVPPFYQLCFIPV
Protocol: as §1

[3] = Dabrafenib pharmacokinetics in 8HUM mice: effect of rifampicin and ketoconazole; type: in vivo, mouse; conditions: for Cmax / half-life / AUC: female, 8HUM, mouse, whole blood, po, 10 mg/kg, female 8HUM mice, dabrafenib 10 mg/kg PO; for AUC: read-out: AUC0 t
Protocol: Pharmacokinetic parameters were calculated by Phoenix WinNonlin version 8.0.0.3176 (Certara, Princeton, NJ).
Fig. 3.

[4] = healthy volunteers; single dose of 200 mg ketoconazole 2 hours prior to midazolam; ref McCrea et al., 1999; cited from earlier work
CYP2D6 [5] = assay: Kinetic parameters of 4-hydroxyl debrisoquine formation in liver microsomes (HLM, 8HUM); type: in vitro ADME; conditions: pooled human liver microsomes (HLM)
Protocol: All samples were handled in amber tubes under conditions of subdued light for the duration of the procedure. […] The samples were then centrifuged at 3000g for 55 minutes at 4°C and an aliquot of the supernatant fraction was analyzed by LC-MS/MS.
Calibration curves were constructed with authentic metabolite standards and linear regression analysis used to calculate the amount of metabolite formed in each test sample. […] The 7-ethoxyresorufin O-deethylation assay was carried out as detailed below.

[6] = female, 8HUM, mouse, in vivo
Protocol: Blood sampling and analysis was carried out as described above and in Supplemental Data.

[7] = Pharmacokinetics of S-acenocoumarol in 8HUM and CypC4KO mice: effect of sulfaphenazole; type: in vivo, mouse; conditions: S-acenocoumarol 1 mg/kg oral
Protocol: Mice were administered two daily doses of SJW before receiving a single oral dose of S-acenocoumarol (1 mg/kg). S-acenocoumarol was dissolved in dimethyl sulfoxide (1 mg/ml) and diluted 10-fold in 100 mM potassium phosphate buffer (pH8) or in a solution of sulfaphenazole (9.78 mg/ml) in the same buffer. Compounds were administered to mice at a volume of 10 ml/kg. Blood collection and sample preparation was performed as described above and analytical details are provided in Supplemental Data.
Fig. 6. […] (A) In vitro microsomal stability assay. […] Values show are mean ± S.D.

[8] = parameters: method as in Thijssen et al., 2001; unit not given beside the values; conditions: man; ref Thijssen et al., 2001; cited from earlier work
[9] = Microsomal stability of S-acenocoumarol; conditions: 1 μM, 2 mg protein/ml
Protocol: The reaction mixture aliquots were taken at specified time points and mixed with an equal volume of acetonitrile containing warfarin (50 ng/ml) as an internal standard. […] The concentrations of S-acenocoumarol were measured by LC-MS/MS. Chromatographic separation was performed on a Kinetex C18 100 Å column (2.6 μm; 5.0 × 2.1 mm) (Phenomenex) using an injection volume of 10 μl and a run time of 7 minutes. The detector used was a Micromass Quattro Micro mass spectrometer (Waters Corporation) run in electrospray positive ion mode.

CYP2C9 [10] = target: T2, CYP2C9; parameters: pooled rifampicin-treated male and female 8HUM mice (8HUM) or pooled human liver microsomes (HLM); host or cells: liver microsomes: pooled human liver; liver of 8HUM mice carrying human CYP2C9 driven by the albumin promoter; conditions: man; ref Thijssen et al., 2001; cited from earlier work
Cyp2b10 = assay: Murine Cyp2b10 expression in humanized mice after treatment (immunoblot); type: in vivo, mouse; conditions: 8HUM mice, dabrafenib 10 mg/kg
Protocol: We therefore sought to identify a specific, clinically relevant PXR agonist that was nontoxic. […] Subsequent studies were therefore undertaken using SJW to induce CYP3A4 expression in 8HUM mice.
(§2) Fig. 7. […] Arrow indicates position of Cyp2b10 band. GRP78 was used as a loading control.
Fig. 8. Effect of dabrafenib on midazolam pharmacokinetics in 8HUM mice. Adult female 8HUM mice (n = 3) were treated with vehicle or dabrafenib (10 mg/kg) PO daily for 2 days, and on day 3 were administered midazolam (3 mg/kg) PO and PK profiling carried out as described in Materials and Methods. (A) Pharmacokinetic profiling for midazolam in 8HUM mice receiving either vehicle (open circles) or dabrafenib (closed triangles). Data shown are mean ± S.D. (B) Immunoblotting of liver microsomes from 8HUM mice, untreated or treated as above, against mouse and human P450 isozymes. Dab, Dabrafenib; MDZ, midazolam; Unt, untreated; Veh, vehicle. One group of dabrafenib-treated mice (Dab) were sacrificed on day 3 without exposure to midazolam to determine the effects of dabrafenib on P450 expression at the start of the PK profiling. […] Std, standard, recombinant human P450 protein or phenobarbital-treated liver microsomes (Cyp2b10); HLM, human liver microsomes.

CYP3A4 = assay: Hepatic CYP3A4 expression in 8HUM mice after dabrafenib (immunoblot); type: in vivo, mouse; conditions: dabrafenib 10 mg/kg PO
Protocol: Female 8HUM mice received either two daily oral doses of dabrafenib (n = 3; 15 weeks; 10 mg/kg) or vehicle (n = 3; 16 weeks; 0.5% hydroxypropylmethylcellulose, 0.2% Tween 80). On day 3 both groups were administered midazolam (3 mg/kg) by oral gavage. Whole blood collection and sample preparation were performed as described above, and analytical details are described in Supplemental Data. A third group of female 8HUM mice (n = 3; 17–22 weeks) received two daily doses of dabrafenib (10 mg/kg) by oral gavage and were culled for tissue collection on day 3 to allow determination of the effects of dabrafenib on P450 expression at the start of the pharmacokinetic (PK) study.
as §2
Fig. 8. Effect of dabrafenib on midazolam pharmacokinetics in 8HUM mice. Adult female 8HUM mice (n = 3) were treated with vehicle or dabrafenib (10 mg/kg) PO daily for 2 days, and on day 3 were administered midazolam (3 mg/kg) PO and PK profiling carried out as described in Materials and Methods. (A) Pharmacokinetic profiling for midazolam in 8HUM mice receiving either vehicle (open circles) or dabrafenib (closed triangles). Data shown are mean ± S.D. (B) Immunoblotting of liver microsomes from 8HUM mice, untreated or treated as above, against mouse and human P450 isozymes. Dab, Dabrafenib; MDZ, midazolam; Unt, untreated; Veh, vehicle. […]

Cytochrome c reductase = Cytochrome c reductase activity in liver microsomes of dabrafenib-treated 8HUM mice; type: in vitro ADME, mouse; conditions: 8HUM liver microsomes
Protocol: A mixture of cytochrome c from bovine heart (40 μM) and mouse liver microsomes (∼7.6 μg/ml) in 0.3 M potassium phosphate buffer (pH 7.7) was incubated at 37°C for at least 2 minutes before the reaction was started by addition of NADPH (0.1 mM final concentration). The absorbance at 550 nm was recorded and the reaction rate calculated from the linear region of the absorbance time course. The extinction coefficient of 0.0211 μM^−1cm^−1 was used ([van Gelder and Slater, 1962]) to calculate concentration of the reduced cytochrome c.
(§3) Fig. 8. Effect of dabrafenib on midazolam pharmacokinetics in 8HUM mice. […] Dab, Dabrafenib; MDZ, midazolam; Unt, untreated; Veh, vehicle.

8HUM liver microsomes [11] = assay: Dextromethorphan O-demethylation in liver microsomes of dabrafenib-treated 8HUM mice; type: in vitro ADME, mouse
Protocol: After 5 minutes, the reaction was stopped by combining 100 μl of the reaction mixture with 120 μl of 0.2 M hydrochloric acid containing dextrorphan-d3 (92 ng/ml) as an internal standard. […] The concentrations of […] were measured by liquid chromatography–tandem mass spectrometry (LC-MS/MS). […] The multiple reaction monitoring parameters for dextrorphan and dextrorphan-d3 were 258.16 and 261.24 (precursor ions) and 157.04 (one product ion for both compounds), respectively.
as §3

8HUM liver microsomes [12] = assay: Dibenzylfluorescein O-debenzylation in liver microsomes of dabrafenib-treated 8HUM mice; type: in vitro ADME, mouse; conditions: for Dibenzylfluorescein O-debenzylation: 8HUM liver microsomes, dabrafenib-treated
Protocol: The O-debenzylation of dibenzylfluorescein (DBF) was measured as described above for the 7-methoxyresorufin O-demethylation assay, with the following modifications: the DBF concentration was 2 μM; the excitation filter was 485 nm; the emission filter was 530 nm; 20 pmol of the fluorescein was added to the control wells.
as §3

[13] = parameters: method as in Suttle et al., 2015; conditions: patients, 150 mg twice per day, ref Suttle et al., 2015, cited from earlier work
CYP1A2 [14] = target: T1, CYP1A2; assay: 7-Methoxyresorufin O-demethylation in liver microsomes of treated 8HUM mice; conditions: 8HUM liver microsomes, dabrafenib-treated
Protocol: A mixture of either 7-methoxyresorufin or 7-ethoxyresorufin (1 μM) and 8HUM liver microsomes or HLM (∼0.38 mg protein/ml) in 100 mM potassium phosphate buffer (pH 7.4) supplemented with MgCl2 (3.3 mM) was incubated at 37°C for 5 minutes before the addition of NADPH (final concentration 1.2 mM). […] Slopes of the linear part of the kinetic curves were calculated using Ascent Software Version 2.4.1 (Labsystems). For each reaction two controls, with and without reaction product resorufin (40 pmol) were run. Fluorescence was measured from both control wells and the difference in fluorescence intensity between wells with and without resorufin was used for the conversion of the relative fluorescence units to the picomoles of the reaction product.

CYP2D6 [15] = test system: CYP2D6; parameters: method as in VandenBrink et al., 2012; conditions: man; ref VandenBrink et al., 2012; cited from earlier work
[16] = Rifampicin 10 mg/kg i.p. daily for 3 days
[17] = Rifampicin + ketoconazole 20 mg/kg PO 30 minutes before
[18] = Vehicle (corn oil) pretreatment

Structure (SMILES): CC(=O)N1CCN(c2ccc(OCC3COC(Cn4ccnc4)(c4ccc(Cl)cc4Cl)O3)cc2)CC1 (stereo not drawn) [Ketoconazole, ketoconazole]
Caffeine (Paraxanthine) activity, percent of activity measured in the absence of inhibitor (CYP1A2 [1]; 8HUM microsomes […]): 85 ± 34% | Caffeine (Paraxanthine) activity, percent of activity measured in the absence of inhibitor (CYP1A2 [1]; HLM […]): 135 ± 45% | Tolbutamide (OH-Tolbutamide) activity, percent of activity measured in the absence of inhibitor (CYP2C9 [2]; 8HUM microsomes […]): 92 ± 11% | Tolbutamide (OH-Tolbutamide) activity, percent of activity measured in the absence of inhibitor (CYP2C9 [2]; HLM […]): 154 ± 66% | Effect of prior ketoconazole on dabrafenib exposure (Cmax and AUC) ([3]; rifampicin-treated female 8HUM mice, ketoconazole 20 mg/kg PO 30 min before dabrafenib): approximately doubling both the Cmax and AUC | Increase of midazolam AUC [4]: ~5 fold

Km at 40 min (CYP2D6 [5]; pH 7.4): 25 ± 7 µM | CYP2D6 fm (fraction metabolized) [6]: 0.88
Structure (SMILES): N=C(N)N1CCc2ccccc2C1 [Debrisoquine, debrisoquine]
Vmax (CYP2D6 [5]): 25 ± 2 pmol/min per milligram protein

Structure (SMILES): CC(=O)C[C@@H](c1ccc([N+](=O)[O-])cc1)c1c(O)c2ccccc2oc1=O [S-acenocoumarol]
AUC ([7]; SJW-pretreated 8HUM mice, coadministered sulfaphenazole): 2008 ± 159 ng·h/mL | AUC ([7]; SJW-pretreated 8HUM mice, vehicle-treated): 230 ± 30 ng·h/mL | AUC ([7]; SJW-pretreated CypC4KO mice): 2520 ± 214 ng·h/mL | AUCR in CYP2C9 extensive versus poor metabolizers [8]: 16.3 | Metabolism in liver microsomes ([9]; liver microsomes from CYP2C9 humanized mice): rapidly metabolized | Metabolism in liver microsomes ([9]; microsomes from wild-type, Cyp2cKO, Cyp2c/2d/3a KO, or hepatic P450 reductase-null mice): practically indistinguishable from that in the no cofactor control | fraction metabolized by CYP2C9 (CYP2C9 [10]): 0.94

Cmax [3, 16]: 1740 ± 733 ng/mL | half-life [3, 16]: 1.4 ± 0.3 h | AUC [3, 16]: 6150 ± 2930 ng·h/mL | Cmax [3, 17]: 3650 ± 1220 ng/mL | half-life [3, 17]: 1.8 ± 0.1 h | AUC [3, 17]: 12900 ± 2710 ng·h/mL | Cmax [3, 18]: 3740 ± 613 ng/mL | half-life [3, 18]: 2.6 ± 0.4 h | AUC [3, 18]: 21900 ± 1690 ng·h/mL | Induction of murine Cyp2b10 (Cyp2b10): induced weakly | Cytochrome c reductase (Cytochrome c reductase; 24 h after final dose): 301 ± 19 | Cytochrome c reductase (Cytochrome c reductase; 48 h after final dose): 244 ± 19 | Methoxyresorufin O-demethylation (CYP1A2 [14]; 24 h after final dose): 52 ± 4 | Methoxyresorufin O-demethylation (CYP1A2 [14]; 48 h after final dose): 36 ± 1
Structure (SMILES): CC(C)(C)c1nc(-c2cccc(NS(=O)(=O)c3c(F)cccc3F)c2F)c(-c2ccnc(N)n2)s1 [dabrafenib]
CYP3A4 induction (CYP3A4): potent PXR activator and CYP3A4 inducer; also recorded: is a CYP3A4 inducer; also recorded: induction of CYP3A4 | Dextromethorphan O-demethylation (8HUM liver microsomes [11]; 24 h after final dose): 726 ± 24 | Dextromethorphan O-demethylation (8HUM liver microsomes [11]; 48 h after final dose): 614 ± 28 | Dibenzylfluorescein O-debenzylation (8HUM liver microsomes [12]; 24 h after final dose): 440 ± 31 | Dibenzylfluorescein O-debenzylation (8HUM liver microsomes [12]; 48 h after final dose): 151 ± 5 | Increase of 7-benylfluorescein O-debenzylation (8HUM liver microsomes [12]; 24 hours after the second dabrafenib dose, vs vehicle): approximately 5.5 fold | Elevation of 7-benylfluorescein O-debenzylation (8HUM liver microsomes [12]; 24 hours later (48 h after final dabrafenib dose), vs control): about twice control values | AUC0-t ([13]; day 1): 9359 ng·h/mL | half-life ([13]; day 1): 4.2 h | AUC0-t ([13]; day 18): 6545 ng·h/mL | half-life ([13]; day 18): 2.1 h

Structure (SMILES): CNCCCN1c2ccccc2CCc2ccccc21 [desipramine]
CYP2D6 fm (CYP2D6 [15]): 0.88
